Test results taken from patent US5948808A, “Indole-3-carbinol, diindolylmethane and substituted analogs as antiestrogens” (The Texas A&M University System, priority 1997, dated 1999).
Read-outs that look alike come from different tables or passages of the source.

Experiments:
MCF-7 cells = assay: Effect of compounds on MCF-7 proliferation (E2-induced growth); assay type: cell-based; details: Homo sapiens, MCF7, 144 h, with E2 (1 nM), 6 days
Protocol: MCF-7 cells (50,000 per well) were grown in six-well plates in DME-F12 medium as described in Liu, et al., Mol. Cell Endocrinol, 87:19-28, 1992. The cells were given fresh medium plus the compounds being tested every other day. After 6 days of treatment, the cells were harvested and counted with a Coulter counter (Coulter Electronics, Hialeah, Fla.) as described by Liu et al., J. Natl. Cancer Inst., 86. 1758-1765, 1994; Tiwari et al., J. Natl, Cancer Inst. 86, 126-131, 1994. In some cases, 17-β-estradiol (E2) (1×10^-9 M) was also added in combination with the IC3 or DIM analogs.
__________________________________________________________________________
EFFECTS OF DIFFERENT CONCENTRATIONS OF I3C
AND SUBSTITUTED ANALOGS ON THE GROWTH
OF MCF-7 CELLS IN THE PRESENCF OF E2
% of E2-Induced Response (Conc. of I3C Analogs)
EFFECTS OF DIFFERENT CONCENTRATIONS OF DIM
AND SUBSTITUTED ANALOGS ON THE
GROWTH OF MCF-7 CELLS IN THE PRESENCE OF E2
% of E2-Induced Response (Conc. of DIM Analogs)

[1] = system: DMBA-induced mammary tumors; assay: Tumor growth in DMBA-induced mammary carcinoma model; assay type: in vivo, Sprague-Dawley rats; details: 10 treatments by gavage 5 mg/kg every other day, sacrificed day 21; mean ± standard error
EROD = EROD in rats of the DMBA-induced mammary carcinoma model; assay type: in vivo, Sprague-Dawley rats; details: 10 treatments by gavage 5 mg/kg every other day, sacrificed day 21; mean ± standard error
[2] = Toxic endpoints (organ weights) in rats of the DMBA-induced mammary carcinoma model; assay type: in vivo, Sprague-Dawley rats; details: 10 treatments by gavage 5 mg/kg every other day, sacrificed day 21, mean ± standard error; for Uterine Wet Weight: control 0.182 ± 0.016; for Liver Weight: control 4.07 ± 0.19
mammary tumors = details: oral, 20 hours prior to DMBA; cited from earlier work
[3] = system: estrogen-regulated tumors; details: cited from earlier work
[4] = system: DMBA-induced mammary tumor; details: dietary I3C; 20% Brussels sprouts; cited from earlier work
[5] = read-out: % of E2-Induced Response (Conc. of DIM Analogs)
[6] = read-out: % of E2-Induced Response (Conc. of I3C Analogs)

| Structure (SMILES) | activity at 0.01 µM (MCF-7 cells; [5]) [%] | activity at 0.1 µM (MCF-7 cells; [5]) [%] | activity at 1 µM (MCF-7 cells; [5]) [%] | activity at 5 µM (MCF-7 cells; [5]) [%] | activity at 10 µM (MCF-7 cells; [5]) [%] | activity at 0.1 µM (MCF-7 cells; [6]) [%] | activity at 1 µM (MCF-7 cells; [6]) [%] | activity at 10 µM (MCF-7 cells; [6]) [%] | activity at 50 µM (MCF-7 cells; [6]) [%] | activity at 100 µM (MCF-7 cells; [6]) [%] | further results |
| --- | --- | --- | --- | --- | --- | --- | --- | --- | --- | --- | --- |
| COc1ccc2[nH]cc(Cc3c[nH]c4ccc(OC)cc34)c2c1 [5-Methoxy-DIM, 5,5'-dimethoxy-diindolylmethane] | 87.2 ± 3.52 | 89.4 ± 3.12 | 69.4 ± 3.95 | 37.1 ± 4.52 | 11.4 ± 1.63 |  |  |  |  |  | Tumor Volume [1]: 22.1 ± 4.4 % Control; Tumor Weight [1]: 22.1 ± 4.4 % Control; EROD (EROD): 151.2 ± 43.4 % Control; Uterine Wet Weight [2]: 0.224 ± 0.034 % body weight; Liver Weight [2]: 4.16 ± 0.23 % body weight |
| COc1ccc2[nH]cc(CO)c2c1 [5-Methoxy-I3C, 5-methoxy-indole-3-carbinol] |  |  |  |  |  | 87.6 ± 5.4 | 78.4 ± 11.9 | 58.9 ± 7.96 | 2.97 ± 0.2 | 0.61 ± 0.14 |  |
| c1ccc2c(Cc3c[nH]c4ccccc34)c[nH]c2c1 [DIM, 3,3'diindolylmethane, reference compound] | 107 ± 8.43 | 97.3 ± 3.56 | 77 ± 5.16 | 22.5 ± 2.47 | 6.84 ± 0.71 |  |  |  |  |  | Tumor Volume [1]: 19.9 ± 5.8 % Control; Tumor Weight [1]: 23.7 ± 6.0 % Control; EROD (EROD): 106.1 ± 22.4 % Control; Uterine Wet Weight [2]: 0.184 ± 0.027 % body weight; Liver Weight [2]: 3.87 ± 0.22 % body weight; occurrence of mammary tumors (in words) (mammary tumors): inhibited the occurrence of mammary tumors |
| OCc1c[nH]c2ccc(Br)cc12 [5-Bromo-I3C, 5-bromo-indole-3-carbinol] |  |  |  |  |  | 96.3 ± 6.97 | 97.3 ± 6.33 | 94.4 ± 2.47 | 59.6 ± 1.05 | 14.9 ± 0.72 |  |
| Cc1c(CO)c2ccccc2n1C [1,2-Dimethyl-I3C] |  |  |  |  |  | 98 ± 5.68 | 94.4 ± 7.73 | 65.9 ± 2.86 | 0.35 ± 0.24 | 0.42 ± 0.14 |  |
| OCc1c[nH]c2ccccc12 [I3C, indole 3-carbinol, reference compound] |  |  |  |  |  | 100 ± 5.7 | 96.3 ± 3.23 | 83.9 ± 2.46 | 36.9 ± 0.65 | 8.15 ± 1 | occurrence of mammary tumors (in words) (mammary tumors): inhibited the occurrence of mammary tumors; formation or growth of estrogen-regulated tumors (in words) ([3]; rodent mammary, endometrium and uterus): inhibit formation or growth of estrogen-regulated tumors; mammary carcinogenesis (in words) ([3]; rodent models): inhibits mammary carcinogenesis in rodent models; DMBA-induced mammary tumor formation and progression (in words) [4]: inhibited DMBA-induced mammary tumor formation and progression |
| Brc1ccc2[nH]cc(Cc3c[nH]c4ccc(Br)cc34)c2c1 [5-Bromo-DIM, 5,5'-dibromo-diindolylmethane] | 99.03 ± 0.49 | 106 ± 3.38 | 75 ± 1.35 | 9.92 ± 0.58 | 0.3 ± 0.04 |  |  |  |  |  |  |
| Cn1cc(CO)c2ccccc21 [N-Methyl-I3C, N-methyl-indole-3-carbinol] |  |  |  |  |  | 95.6 ± 4.26 | 96.2 ± 1.66 | 47.8 ± 2.13 | 14.4 ± 0.9 | 3.91 ± 0.64 |  |
| Cn1cc(Cc2cn(C)c3ccccc23)c2ccccc21 [N-Methyl-DIM, N,N'-dimethyl-diindolylmethane] | 82.8 ± 10.8 | 96.4 ± 2.94 | 78.5 ± 3.03 | 3.92 ± 0.49 | 0.85 ± 0.12 |  |  |  |  |  |  |
| Cc1ccc2[nH]cc(CO)c2c1 [5-Methyl-I3C, 5-methyl-indole-3-carbinol] |  |  |  |  |  | 87.8 ± 11.1 | 81.6 ± 10.8 | 53 ± 4.24 | 0.87 ± 0.11 | 0.57 ± 0.2 |  |
| O=[N+]([O-])c1ccc2[nH]cc(CO)c2c1 [5-Nitro-I3C] |  |  |  |  |  | 94.7 ± 2.05 | 92.7 ± 3.89 | 44.2 ± 3.34 | 1.71 ± 0.06 | 0.39 ± 0.06 |  |
| Fc1ccc2[nH]cc(Cc3c[nH]c4ccc(F)cc34)c2c1 [5-Fluoro-DIM, 5,5'-difluoro-diindolylmethane] | 90.3 ± 2.5 | 103 ± 2.63 | 77.1 ± 3.51 | 35.7 ± 5.13 | 8.46 ± 1.17 |  |  |  |  |  | Tumor Volume [1]: 35.8 ± 16.6 % Control; Tumor Weight [1]: 45.0 ± 20.0 % Control; EROD (EROD): 157.6 ± 22.1 % Control; Uterine Wet Weight [2]: 0.208 ± 0.044 % body weight; Liver Weight [2]: 4.30 ± 0.29 % body weight |
| OCc1c[nH]c2ccc(Cl)cc12 [5-Chloro-I3C, 5-chloro-indole-3-carbinol] |  |  |  |  |  | 94 ± 11.2 | 92.4 ± 3.14 | 82.2 ± 4.55 | 29.8 ± 5.98 | 1.02 ± 0.22 |  |
| Clc1ccc2[nH]cc(Cc3c[nH]c4ccc(Cl)cc34)c2c1 [5-Chloro-DIM, 5,5'-dichloro-diindolylmethane] | 98.4 ± 11.2 | 98.3 ± 8.34 | 87.3 ± 5.98 | 0.75 ± 0.1 | 0.99 ± 0.27 |  |  |  |  |  |  |
